Assay results published in EP0371837A2, “Process for the synthesis of esters of dithiocarbamic acids by substitution of hydroxylated positions of mono- or polyhydroxylated molecules, products of this process and their uses” (PASTEUR MERIEUX SERUMS ET VACCINS, priority 1988, dated 1990).

Key:
[1] = Toxicity of lithium dithiocarbamates (method not described); details: statement in words, no test described
[2] = Activity of lithium dithiocarbamates (method not described); details: statement in words, no test described; same applications as the esters (immunomodulator, antiviral)

CCN(CC)C(=S)S [diéthyldithiocarbamate de lithium, N,N diéthyl dithiocarbamate de lithium]
toxicité [1]: peu toxiques | activité [2]: très actifs
